Data taken from US20250339569A1, “CARBONIC ANHYDRASE IX LIGANDS” (priority 2021, published 2025).
Starred links: 1 amine or outer side, 2 acyl side, 3 side chain; linkers in the order of their positions; H or OH if unused. Positions of bridges follow the written chain, without caps; N, C: chain ends. Non-standard residues stand in square brackets, D forms with d. Residues, ends and D or L forms follow the SMILES beside them. Groups on a side chain read outwards from the residue. *: point of attachment. X57 = O=C(Cn1ccccc1=O)Nc1cccc(C[C@H](N[*:1])C(=O)[*:2])c1; DOTA = O=C(O)CN1CCN(CC(=O)O)CCN(CC(=O)*)CCN(CC(=O)O)CC1; Cyclopropanecarbonyl(1-CN) = N#CC1(C(=O)*)CC1; X7 = O=C([C@H](Cc1cccc(N[*:3])c1)N[*:1])[*:2]; Phe(4-NH2) = Nc1ccc(C[C@H](N)C(=O)O)cc1; X55 = O=C1Nc2ccc(C(=O)*)cc2S(=O)(=O)N1; mXylylene = c1cc(C[*:1])cc(C[*:2])c1; X49 = N#Cc1ccc(N2CCCN(*)CC2)c(F)c1; X36 = NS(=O)(=O)Cc1ccc(C(=O)*)cc1; X2 = O=C(CN1CCC(N[*:1])CC1)[*:2]; X60 = NC(=O)c1ccc(N2CC(N*)C2)cc1; X53 = Cc1cc2cc(CN*)ccc2[nH]c1=O; 4Amb = NCc1ccc(C(=O)O)cc1; Isovaleryl = CC(C)CC(=O)*; Fluoroacetyl = O=C(CF)*; X67 = CS(=O)(=O)CC(=O)*; X70 = N#Cc1ccc(CN*)cc1; X45 = COCc1cc(CN*)on1; Propionyl = CCC(=O)*

biological target: T1, CAIX-expressing human HT-29 colorectal cancer cells (Homo sapiens, UniProt Q16790); assay: FACS binding assay (IC50 determination, competition with tracer 3BP-2776 or 3BP-4149); details: not given
T1 construct: CAIX-expressing human HT-29 colorectal cancer cells; host or cells: HT-29 human colorectal cancer cells
In short: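 HT-29 cells in FACS buffer (PBS, 1% FCS) at 500.000 cells/ml were exposed to compounds competing with a labelled tracer, with biotinylated compounds detected by 1 μg/mL APC-streptavidin for 30 min on ice. APC/Cy5 median fluorescence was read by flow cytometry and IC50 derived by 4PL fit.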

SMILES	IC50 [µM]
CC(C)C[C@@H]1NC(=O)[C@H](Cc2ccc(NC(=O)CF)cc2)NC(=O)[C@H](CC(=O)O)NC(=O)[C@H]2CCCN2C(=O)[C@H](CCC(=O)O)NC(=O)[C@@H](NC(=O)[C@H](Cc2ccc(O)cc2)NC(=O)[C@@H](NC(=O)CN2CCC(NC(=O)CN3CCN(CC(=O)O)CCN(CC(=O)O)CCN(CC(=O)O)CC3)CC2)C(C)C)CSCc2cccc(c2)CSC[C@@H](C(N)=O)NC(=O)[C@H](CO)NC(=O)[C@H](Cc2c[nH]c3ccccc23)NC(=O)[C@H]([C@@H](C)O)NC1=O [3BP-4358] ({DOTA}-[X2]VYCE[dP]D[Phe(4-NH2)](Fluoroacetyl)LTWSC-NH2; linker 4-13 via mXylylene)	0.1 to 0.794

same assay, conditions: FACS binding assay, HT-29 cells, competition with tracer 3BP-4149 (3 nM, Cy5-labeled), 4° C., 1 hour; read-out: pIC50 category (activity) (converted)

IC50 [µM]	SMILES
0.01 to 0.0794	COCc1cc(CNC(=O)CC[C@@H]2NC(=O)[C@H]3CCCN3C(=O)[C@H](CCC(=O)O)NC(=O)[C@@H](NC(=O)[C@H](Cc3ccc(O)cc3)NC(=O)[C@@H](NC(=O)CN3CCC(NC(=O)CN4CCN(CC(=O)O)CCN(CC(=O)O)CCN(CC(=O)O)CC4)CC3)C(C)C)CSCc3cccc(c3)CSC[C@@H](C(N)=O)NC(=O)[C@H](CO)NC(=O)[C@H](Cc3c[nH]c4ccccc34)NC(=O)[C@H]([C@@H](C)O)NC(=O)[C@H](CC(C)C)NC(=O)[C@H](Cc3c[nH]c4ccccc34)NC2=O)on1 [3BP-4339] ({DOTA}-[X2]VYCE[dP]E(X45)WLTWSC-NH2; linker 4-13 via mXylylene)
0.01 to 0.0794	CC(C)C[C@@H]1NC(=O)[C@H](Cc2c[nH]c3ccccc23)NC(=O)[C@H](CCC(=O)NCc2ccc(C#N)cc2)NC(=O)[C@H]2CCCN2C(=O)[C@H](CCC(=O)O)NC(=O)[C@@H](NC(=O)[C@H](Cc2ccc(O)cc2)NC(=O)[C@@H](NC(=O)CN2CCC(NC(=O)CN3CCN(CC(=O)O)CCN(CC(=O)O)CCN(CC(=O)O)CC3)CC2)C(C)C)CSCc2cccc(c2)CSC[C@@H](C(N)=O)NC(=O)[C@H](CO)NC(=O)[C@H](Cc2c[nH]c3ccccc23)NC(=O)[C@H]([C@@H](C)O)NC1=O [3BP-4340] ({DOTA}-[X2]VYCE[dP]E(X70)WLTWSC-NH2; linker 4-13 via mXylylene)
0.01 to 0.0794	CC(C)C[C@@H]1NC(=O)[C@H](Cc2c[nH]c3ccccc23)NC(=O)[C@H](CCC(=O)NCc2ccc(C(N)=O)cc2)NC(=O)[C@H]2CCCN2C(=O)[C@H](CCC(=O)O)NC(=O)[C@@H](NC(=O)[C@H](Cc2ccc(O)cc2)NC(=O)[C@@H](NC(=O)CN2CCC(NC(=O)CN3CCN(CC(=O)O)CCN(CC(=O)O)CCN(CC(=O)O)CC3)CC2)C(C)C)CSCc2cccc(c2)CSC[C@@H](C(N)=O)NC(=O)[C@H](CO)NC(=O)[C@H](Cc2c[nH]c3ccccc23)NC(=O)[C@H]([C@@H](C)O)NC1=O [3BP-4345] ({DOTA}-[X2]VYCE[dP]E([4Amb-NH2])WLTWSC-NH2; linker 4-13 via mXylylene)
0.1 to 0.794	CCC(=O)Nc1ccc(C[C@@H]2NC(=O)[C@H](CC(=O)O)NC(=O)[C@H]3CCCN3C(=O)[C@H](CCC(=O)O)NC(=O)[C@@H](NC(=O)[C@H](Cc3ccc(O)cc3)NC(=O)[C@@H](NC(=O)CN3CCC(NC(=O)CN4CCN(CC(=O)O)CCN(CC(=O)O)CCN(CC(=O)O)CC4)CC3)C(C)C)CSCc3cccc(c3)CSC[C@@H](C(N)=O)NC(=O)[C@H](CO)NC(=O)[C@H](Cc3c[nH]c4ccccc34)NC(=O)[C@H]([C@@H](C)O)NC(=O)[C@H](CC(C)C)NC2=O)cc1 [3BP-4347] ({DOTA}-[X2]VYCE[dP]D[Phe(4-NH2)](Propionyl)LTWSC-NH2; linker 4-13 via mXylylene)
0.1 to 0.794	CC(C)CC(=O)Nc1ccc(C[C@@H]2NC(=O)[C@H](CC(=O)O)NC(=O)[C@H]3CCCN3C(=O)[C@H](CCC(=O)O)NC(=O)[C@@H](NC(=O)[C@H](Cc3ccc(O)cc3)NC(=O)[C@@H](NC(=O)CN3CCC(NC(=O)CN4CCN(CC(=O)O)CCN(CC(=O)O)CCN(CC(=O)O)CC4)CC3)C(C)C)CSCc3cccc(c3)CSC[C@@H](C(N)=O)NC(=O)[C@H](CO)NC(=O)[C@H](Cc3c[nH]c4ccccc34)NC(=O)[C@H]([C@@H](C)O)NC(=O)[C@H](CC(C)C)NC2=O)cc1 [3BP-4348] ({DOTA}-[X2]VYCE[dP]D[Phe(4-NH2)](Isovaleryl)LTWSC-NH2; linker 4-13 via mXylylene)
0.1 to 0.794	CC(C)C[C@@H]1NC(=O)[C@H](Cc2ccc(NC(=O)C3(C#N)CC3)cc2)NC(=O)[C@H](CC(=O)O)NC(=O)[C@H]2CCCN2C(=O)[C@H](CCC(=O)O)NC(=O)[C@@H](NC(=O)[C@H](Cc2ccc(O)cc2)NC(=O)[C@@H](NC(=O)CN2CCC(NC(=O)CN3CCN(CC(=O)O)CCN(CC(=O)O)CCN(CC(=O)O)CC3)CC2)C(C)C)CSCc2cccc(c2)CSC[C@@H](C(N)=O)NC(=O)[C@H](CO)NC(=O)[C@H](Cc2c[nH]c3ccccc23)NC(=O)[C@H]([C@@H](C)O)NC1=O [3BP-4357] ({DOTA}-[X2]VYCE[dP]D[Phe(4-NH2)](Cyclopropanecarbonyl(1-CN))LTWSC-NH2; linker 4-13 via mXylylene)
0.1 to 0.794	CC(C)C[C@@H]1NC(=O)[C@H](Cc2ccc(NC(=O)CS(C)(=O)=O)cc2)NC(=O)[C@H](CC(=O)O)NC(=O)[C@H]2CCCN2C(=O)[C@H](CCC(=O)O)NC(=O)[C@@H](NC(=O)[C@H](Cc2ccc(O)cc2)NC(=O)[C@@H](NC(=O)CN2CCC(NC(=O)CN3CCN(CC(=O)O)CCN(CC(=O)O)CCN(CC(=O)O)CC3)CC2)C(C)C)CSCc2cccc(c2)CSC[C@@H](C(N)=O)NC(=O)[C@H](CO)NC(=O)[C@H](Cc2c[nH]c3ccccc23)NC(=O)[C@H]([C@@H](C)O)NC1=O [3BP-4360] ({DOTA}-[X2]VYCE[dP]D[Phe(4-NH2)](X67)LTWSC-NH2; linker 4-13 via mXylylene)
0.01 to 0.0794	CC(C)C[C@@H]1NC(=O)[C@H](Cc2cccc(NC(=O)Cn3ccccc3=O)c2)NC(=O)[C@H](CC(=O)O)NC(=O)[C@H]2CCCN2C(=O)[C@H](CCC(=O)O)NC(=O)[C@@H](NC(=O)[C@H](Cc2ccc(O)cc2)NC(=O)[C@@H](NC(=O)CN2CCC(NC(=O)CN3CCN(CC(=O)O)CCN(CC(=O)O)CCN(CC(=O)O)CC3)CC2)C(C)C)CSCc2cccc(c2)CSC[C@@H](C(N)=O)NC(=O)[C@H](CO)NC(=O)[C@H](Cc2c[nH]c3ccccc23)NC(=O)[C@H]([C@@H](C)O)NC1=O [3BP-4370] ({DOTA}-[X2]VYCE[dP]D[X57]LTWSC-NH2; linker 4-13 via mXylylene)
0.01 to 0.0794	CC(C)C[C@@H]1NC(=O)[C@H](Cc2c[nH]c3ccccc23)NC(=O)[C@H](CCC(=O)NC2CN(c3ccc(C(N)=O)cc3)C2)NC(=O)[C@H]2CCCN2C(=O)[C@H](CCC(=O)O)NC(=O)[C@@H](NC(=O)[C@H](Cc2ccc(O)cc2)NC(=O)[C@@H](NC(=O)CN2CCC(NC(=O)CN3CCN(CC(=O)O)CCN(CC(=O)O)CCN(CC(=O)O)CC3)CC2)C(C)C)CSCc2cccc(c2)CSC[C@@H](C(N)=O)NC(=O)[C@H](CO)NC(=O)[C@H](Cc2c[nH]c3ccccc23)NC(=O)[C@H]([C@@H](C)O)NC1=O [3BP-4388] ({DOTA}-[X2]VYCE[dP]E(X60)WLTWSC-NH2; linker 4-13 via mXylylene)
0.01 to 0.0794	CC(C)C[C@@H]1NC(=O)[C@H](Cc2c[nH]c3ccccc23)NC(=O)[C@H](CCC(=O)N2CCCN(c3ccc(C#N)cc3F)CC2)NC(=O)[C@H]2CCCN2C(=O)[C@H](CCC(=O)O)NC(=O)[C@@H](NC(=O)[C@H](Cc2ccc(O)cc2)NC(=O)[C@@H](NC(=O)CN2CCC(NC(=O)CN3CCN(CC(=O)O)CCN(CC(=O)O)CCN(CC(=O)O)CC3)CC2)C(C)C)CSCc2cccc(c2)CSC[C@@H](C(N)=O)NC(=O)[C@H](CO)NC(=O)[C@H](Cc2c[nH]c3ccccc23)NC(=O)[C@H]([C@@H](C)O)NC1=O [3BP-4389] ({DOTA}-[X2]VYCE[dP]E(X49)WLTWSC-NH2; linker 4-13 via mXylylene)
0.01 to 0.0794	Cc1cc2cc(CNC(=O)CC[C@@H]3NC(=O)[C@H]4CCCN4C(=O)[C@H](CCC(=O)O)NC(=O)[C@@H](NC(=O)[C@H](Cc4ccc(O)cc4)NC(=O)[C@@H](NC(=O)CN4CCC(NC(=O)CN5CCN(CC(=O)O)CCN(CC(=O)O)CCN(CC(=O)O)CC5)CC4)C(C)C)CSCc4cccc(c4)CSC[C@@H](C(N)=O)NC(=O)[C@H](CO)NC(=O)[C@H](Cc4c[nH]c5ccccc45)NC(=O)[C@H]([C@@H](C)O)NC(=O)[C@H](CC(C)C)NC(=O)[C@H](Cc4c[nH]c5ccccc45)NC3=O)ccc2[nH]c1=O [3BP-4390] ({DOTA}-[X2]VYCE[dP]E(X53)WLTWSC-NH2; linker 4-13 via mXylylene)
0.01 to 0.0794	CC(C)C[C@@H]1NC(=O)[C@H](Cc2ccc(NC(=O)c3ccc(CS(N)(=O)=O)cc3)cc2)NC(=O)[C@H](CC(=O)O)NC(=O)[C@H]2CCCN2C(=O)[C@H](CCC(=O)O)NC(=O)[C@@H](NC(=O)[C@H](Cc2ccc(O)cc2)NC(=O)[C@@H](NC(=O)CN2CCC(NC(=O)CN3CCN(CC(=O)O)CCN(CC(=O)O)CCN(CC(=O)O)CC3)CC2)C(C)C)CSCc2cccc(c2)CSC[C@@H](C(N)=O)NC(=O)[C@H](CO)NC(=O)[C@H](Cc2c[nH]c3ccccc23)NC(=O)[C@H]([C@@H](C)O)NC1=O [3BP-4399] ({DOTA}-[X2]VYCE[dP]D[Phe(4-NH2)](X36)LTWSC-NH2; linker 4-13 via mXylylene)
0.1 to 0.794	CC(C)C[C@@H]1NC(=O)[C@H](Cc2cccc(NC(=O)c3ccc4c(c3)S(=O)(=O)NC(=O)N4)c2)NC(=O)[C@H](CC(=O)O)NC(=O)[C@H]2CCCN2C(=O)[C@H](CCC(=O)O)NC(=O)[C@@H](NC(=O)[C@H](Cc2ccc(O)cc2)NC(=O)[C@@H](NC(=O)CN2CCC(NC(=O)CN3CCN(CC(=O)O)CCN(CC(=O)O)CCN(CC(=O)O)CC3)CC2)C(C)C)CSCc2cccc(c2)CSC[C@@H](C(N)=O)NC(=O)[C@H](CO)NC(=O)[C@H](Cc2c[nH]c3ccccc23)NC(=O)[C@H]([C@@H](C)O)NC1=O [3BP-4415] ({DOTA}-[X2]VYCE[dP]D[X7](X55)LTWSC-NH2; linker 4-13 via mXylylene)
